Assays:
[1] = 101.33 kPa, Liquid
[2] = xn = mol fraction of the nth substance listed; details: 101 kPa, Liquid

OCCO [1,2-ethanediol]
[1]
Details | mass density [kg/m3] | speed of sound [m/s] | viscosity [mPa·s]
298.15 K | – | 1662 | 14.82
303.15 K | 1106.63 | – | –
308.15 K | – | 1635 | 10.48
313.15 K | 1099.64 | – | –

CC(O)CO (stereo not drawn) [1,2-propanediol]
[1]
Details | mass density [kg/m3] | speed of sound [m/s] | viscosity [mPa·s]
298.15 K | 1032.75 | 1492 | 43.43
303.15 K | 1029.02 | – | –
308.15 K | 1025.4 | 1454 | 24.24
313.15 K | 1021.53 | – | –

CC(=O)OCCC(C)C [3-methylbutyl ethanoate]
[1]
Details | mass density [kg/m3] | speed of sound [m/s] | viscosity [mPa·s]
298.15 K | 866.21 | 1195 | 0.781
303.15 K | 861.05 | – | –
308.15 K | 855.85 | 1154 | 0.747
313.15 K | 852.95 | – | –

CCCCOC(C)=O [butyl ethanoate]
[1]
Details | mass density [kg/m3] | speed of sound [m/s] | viscosity [mPa·s]
298.15 K | 876.19 | 1190 | 0.674
303.15 K | 871.27 | – | –
308.15 K | 865.43 | 1150 | 0.594
313.15 K | 860.48 | – | –

OCCOCCO [diethylene glycol]
[1]
Details | mass density [kg/m3] | speed of sound [m/s] | viscosity [mPa·s]
298.15 K | 1113.51 | 1580 | 30.01
303.15 K | 1109.56 | – | –
308.15 K | 1106.22 | 1550 | 16.97
313.15 K | 1103.02 | – | –

CCOC(C)=O [ethyl acetate]
[1]
Details | mass density [kg/m3] | speed of sound [m/s] | viscosity [mPa·s]
298.15 K | 894.55 | 1138 | 0.428
303.15 K | 888.48 | – | –
308.15 K | 882.5 | 1095 | 0.387
313.15 K | 875.97 | – | –

COC(C)=O [methyl ethanoate]
[1]
Details | mass density [kg/m3] | speed of sound [m/s] | viscosity [mPa·s]
298.15 K | 926.8 | 1150 | 0.384
303.15 K | 919.7 | – | –
308.15 K | 915.22 | 1103 | 0.351
313.15 K | 908.33 | – | –

OCCOCCOCCO [triethylene glycol]
[1]
Details | mass density [kg/m3] | speed of sound [m/s] | viscosity [mPa·s]
298.15 K | 1119.59 | 1612 | 34.4
303.15 K | 1115.88 | – | –
308.15 K | 1111.96 | 1586 | 21.31
313.15 K | 1109.53 | – | –

OCCOCCOCCO [triethylene glycol] + CCOC(C)=O
[2]
Details | mass density, 298.15 K [kg/m3] | mass density, 303.15 K [kg/m3] | mass density, 308.15 K [kg/m3] | mass density, 313.15 K [kg/m3] | speed of sound, 298.15 K [m/s] | speed of sound, 308.15 K [m/s] | viscosity, 298.15 K [mPa·s] | viscosity, 308.15 K [mPa·s]
x2 = 0.0466 | 1112.15 | 1108.39 | 1104.32 | 1101.76 | 1592 | 1567 | 30.14 | 18.65
x2 = 0.1482 | 1095.3 | 1091.27 | 1086.97 | 1084.07 | 1547 | 1523 | 22.05 | 13.71
x2 = 0.25 | 1077.4 | 1073.02 | 1068.55 | 1065.26 | 1499 | 1473 | 15.58 | 9.818
x2 = 0.3499 | 1058.65 | 1053.94 | 1049.34 | 1045.63 | 1452 | 1426 | 10.73 | 6.905
x2 = 0.4493 | 1038.63 | 1033.67 | 1028.96 | 1024.82 | 1408 | 1379 | 7.167 | 4.749
x2 = 0.4995 | 1027.95 | 1022.9 | 1018.12 | 1013.77 | 1386 | 1356 | 5.775 | 3.896
x2 = 0.5503 | 1016.71 | 1011.6 | 1006.75 | 1002.18 | 1363 | 1333 | 4.602 | 3.168
x2 = 0.6497 | 993.4 | 988.21 | 983.2 | 978.19 | 1318 | 1286 | 2.881 | 2.076
x2 = 0.749 | 968.18 | 962.95 | 957.73 | 952.29 | 1271 | 1236 | 1.748 | 1.329
x2 = 0.8503 | 940.27 | 934.9 | 929.41 | 923.53 | 1220 | 1181 | 1.015 | 0.823
x2 = 0.9417 | 913.03 | 907.33 | 901.55 | 895.28 | 1171 | 1130 | 0.604 | 0.523

OCCOCCOCCO [triethylene glycol] + COC(C)=O
[2]
Details | mass density, 298.15 K [kg/m3] | mass density, 303.15 K [kg/m3] | mass density, 308.15 K [kg/m3] | mass density, 313.15 K [kg/m3] | speed of sound, 298.15 K [m/s] | speed of sound, 308.15 K [m/s] | viscosity, 298.15 K [mPa·s] | viscosity, 308.15 K [mPa·s]
x2 = 0.0455 | 1115.19 | 1111.41 | 1107.51 | 1105.03 | 1598 | 1572 | 32.01 | 19.45
x2 = 0.1522 | 1103.73 | 1099.72 | 1095.8 | 1093.05 | 1559 | 1533 | 25.74 | 15.15
x2 = 0.2512 | 1091.78 | 1087.49 | 1083.5 | 1080.38 | 1521 | 1493 | 19.76 | 11.49
x2 = 0.3504 | 1078.53 | 1073.91 | 1069.84 | 1066.3 | 1482 | 1452 | 14.27 | 8.336
x2 = 0.4457 | 1064.43 | 1059.49 | 1055.35 | 1051.39 | 1446 | 1414 | 9.869 | 5.882
x2 = 0.49 | 1057.35 | 1052.25 | 1048.08 | 1043.93 | 1428 | 1396 | 8.158 | 4.935
x2 = 0.5519 | 1046.77 | 1041.46 | 1037.27 | 1032.85 | 1402 | 1369 | 6.128 | 3.806
x2 = 0.6512 | 1027.79 | 1022.13 | 1017.92 | 1013.08 | 1357 | 1323 | 3.687 | 2.422
x2 = 0.7516 | 1005.3 | 999.28 | 995.06 | 989.76 | 1305 | 1268 | 2.075 | 1.467
x2 = 0.8513 | 978.49 | 972.08 | 967.82 | 962.01 | 1246 | 1206 | 1.103 | 0.854
x2 = 0.9424 | 948.8 | 941.98 | 937.63 | 931.21 | 1188 | 1143 | 0.587 | 0.501
